The source made the active and inactive calls.
How the values were obtained:
Staphylococcus aureus = assay: Inhibitors of Bacterial Quorum Sensing Structure Activity Relationship (SAR) Analysis: Dose Response Assay. [Related pubchem assays: 700, 527 ]; assay type: functional, organism-based
[1] = THP-1 cell cytotoxicity, dose response, cytotoxicity control for non-replicating M. tuberculosis project (AID 489025); assay type: functional
INS1 = assay: INS-1E survival protection against cytokine death – cell-based, luminescence, retest, dose response (AID 449756); assay type: functional; conditions: Rattus norvegicus;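 also: cell death triggered by IL-1 beta plus TNF-alpha plus IFN-gamma mixture; protective hits raise ATP signal compared with cytokine alone wells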
cells [2] = assay type: functional
[3] = Luminescence-based counterscreen assay for KLF5 inhibitors: dose response cell-based high throughput screening assay to identify cytotoxic compounds using the IEC-6 intestinal epithelial cell line. [Related pubchem assays: 1700 (Primary screen.), 1834 (Confirmation screen.), 1858 (Summary AID.), 1905 (Counterscreen.)]; assay type: functional
[4] = HepG2 cell cytotoxicity, dose response, cytotoxicity control for non-replicating M. tuberculosis project (AID 489018); assay type: functional; conditions: Mycobacterium tuberculosis
[5] = Vero E6 cell cytotoxicity, dose response, cytotoxicity control for non-replicating M. tuberculosis project, secondary assay (AID 492998); assay type: functional, VeroE6; conditions: Vero C1008
Streptokinase A = target: T1, Streptokinase A (Streptococcus pyogenes serotype M1, UniProt P10520); assay: viability-normalized secreted streptokinase activity reduction – plasminogen activation absorbance, OD405, dose response (AID 1914); assay type: functional, Streptococcus pyogenes M1 GAS;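 also: secreted streptokinase activity via plasminogen activation per viability signal from cell pellet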
T1 sequence (P10520 whole entry): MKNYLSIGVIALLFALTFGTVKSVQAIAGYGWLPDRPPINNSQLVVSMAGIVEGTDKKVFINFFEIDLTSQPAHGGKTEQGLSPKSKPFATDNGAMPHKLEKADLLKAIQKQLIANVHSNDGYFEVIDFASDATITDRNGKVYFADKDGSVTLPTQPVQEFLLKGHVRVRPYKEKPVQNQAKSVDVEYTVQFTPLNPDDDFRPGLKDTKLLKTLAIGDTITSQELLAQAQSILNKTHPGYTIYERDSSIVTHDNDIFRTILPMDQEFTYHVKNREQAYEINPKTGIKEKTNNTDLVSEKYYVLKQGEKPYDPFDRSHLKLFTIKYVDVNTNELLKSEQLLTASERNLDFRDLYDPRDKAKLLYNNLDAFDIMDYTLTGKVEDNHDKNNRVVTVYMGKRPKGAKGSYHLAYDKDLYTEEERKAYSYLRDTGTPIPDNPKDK

cells [6] = assay type: functional, cell-based
Streptococcus = assay: GAS UMAA2166 growth inhibition – luminescence, BacTiterGlo, counter-screen for streptokinase expression inhibitor project, dose response (AID 1915); assay type: functional, organism-based;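 also: potency for reduction of bacterial viability or growth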
cells [7] = assay type: functional, cell-based; remark: listed apart in the source
[8] = system: Streptococcus sp. 'group A'; assay: Streptococcus pyogenes SK(-)GAS viability under kanamycin – luminescence, BacTiterGlo, confirmation, counter-screen for streptokinase expression inhibitor project, dose response (AID 1900); assay type: functional, organism-based
Cytochrome P450 2C9 = Cytochrome P450 2C9 (Homo sapiens, UniProt P11712); conditions: Potency
Cytochrome P450 2D6 = Cytochrome P450 2D6 (Homo sapiens, UniProt P10635); assay: qHTS Assay for Inhibitors and Substrates of Cytochrome P450 2D6. [Related pubchem assays: 410 ]; assay type: ADME; conditions: read-out: Potency
[9] = target: G-protein coupled receptor 35 (Homo sapiens, UniProt Q9HC97); assay: inhibition of zaprinast-stimulated GPR35 beta-arrestin translocation – imaging, U2OS, beta-arrestin-GFP, zaprinast agonist, primary screen (AID 2058); assay type: functional;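 also: antagonist potency meaning inhibition of agonist-induced arrestin redistribution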
[10] = ADP-Glo luciferase signal interference – biochemical, luminescence, cherry-picked samples, set 2, artefact control for CDK5 inhibitor project, dose response (AID 504546); assay type: functional, cell-based
[11] = target: Cyclin-dependent kinase 5/CDK5 activator 1 (Homo sapiens, UniProt Q00535); assay: blockade of human CDK5 activity – biochemical, cherry-picked samples, set 2, dose response (AID 504545)
Chain of Cyclin-dependent kinase 5/CDK5 activator 1 (Q00535 whole entry): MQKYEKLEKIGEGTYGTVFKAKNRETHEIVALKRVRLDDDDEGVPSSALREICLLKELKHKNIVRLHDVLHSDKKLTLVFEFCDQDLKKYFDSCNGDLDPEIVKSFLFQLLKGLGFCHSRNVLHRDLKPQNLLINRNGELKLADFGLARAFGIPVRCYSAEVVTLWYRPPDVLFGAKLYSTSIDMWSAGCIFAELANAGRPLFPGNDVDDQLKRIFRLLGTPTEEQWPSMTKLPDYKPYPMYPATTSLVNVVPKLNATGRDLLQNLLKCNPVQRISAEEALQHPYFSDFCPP
Chain of Cyclin-dependent kinase 5/CDK5 activator 1 (Q15078 whole entry, further chain): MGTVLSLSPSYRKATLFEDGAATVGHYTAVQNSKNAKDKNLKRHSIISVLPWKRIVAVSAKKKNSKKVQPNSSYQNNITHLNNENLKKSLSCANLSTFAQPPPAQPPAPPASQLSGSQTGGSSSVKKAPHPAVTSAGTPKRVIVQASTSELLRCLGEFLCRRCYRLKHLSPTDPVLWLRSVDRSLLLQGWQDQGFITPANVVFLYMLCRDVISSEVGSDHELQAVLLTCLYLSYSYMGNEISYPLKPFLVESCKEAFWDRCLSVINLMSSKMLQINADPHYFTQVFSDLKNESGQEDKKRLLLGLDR

[12] = target: Melanin-concentrating hormone receptor 1 (Homo sapiens, UniProt Q99705); assay: Fluorescence-based counterscreen for antagonists of the G-protein coupled receptor 7 (GPR7): cell-based high throughput dose response assay to identify antagonists of the melanin-concentrating hormone receptor 1 (MCHR1).; assay type: functional
[13] = target: Neuropeptides B/W receptor type 1 (Homo sapiens, UniProt P48145); assay: Fluorescence-based dose response cell-based high throughput screening assay to identify antagonists of the G-protein coupled receptor 7 (GPR7). [Related pubchem assays: 1952 (Screening assay (GPR7 antagonists).), 1880 (Summary AID.)]; assay type: functional
NADPH oxidase 1 = NADPH oxidase 1 (Homo sapiens, UniProt Q9Y5S8); assay type: functional, cell-based;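 also: Cell-based assay with luminescence read-out, IC50 derived from inhibitor dose-response curves; intracellular ROS from endogenous NOX1 in intact HT29 colon cancer cells; potency of inhibitors that lower the ROS luminescence signal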
[14] = Luminescence Cell-Based Dose-Confimation HTS to Identify Inhibitors of 5'UTR Stem-Loop Driven Alpha-Synuclein mRNA Translation in H4 Neuroglioblastoma Cells. [Related pubchem assays: 1827 (Project Summary), 1813 (Primary HTS)]; assay type: functional
[15] = target: Protein-tyrosine kinase 2-beta (Homo sapiens, UniProt Q14289);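 also: potency of inhibitors of PYK2 kinase phosphorylation of poly-GT substrate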
Chain of Protein-tyrosine kinase 2-beta (Q14289 whole entry): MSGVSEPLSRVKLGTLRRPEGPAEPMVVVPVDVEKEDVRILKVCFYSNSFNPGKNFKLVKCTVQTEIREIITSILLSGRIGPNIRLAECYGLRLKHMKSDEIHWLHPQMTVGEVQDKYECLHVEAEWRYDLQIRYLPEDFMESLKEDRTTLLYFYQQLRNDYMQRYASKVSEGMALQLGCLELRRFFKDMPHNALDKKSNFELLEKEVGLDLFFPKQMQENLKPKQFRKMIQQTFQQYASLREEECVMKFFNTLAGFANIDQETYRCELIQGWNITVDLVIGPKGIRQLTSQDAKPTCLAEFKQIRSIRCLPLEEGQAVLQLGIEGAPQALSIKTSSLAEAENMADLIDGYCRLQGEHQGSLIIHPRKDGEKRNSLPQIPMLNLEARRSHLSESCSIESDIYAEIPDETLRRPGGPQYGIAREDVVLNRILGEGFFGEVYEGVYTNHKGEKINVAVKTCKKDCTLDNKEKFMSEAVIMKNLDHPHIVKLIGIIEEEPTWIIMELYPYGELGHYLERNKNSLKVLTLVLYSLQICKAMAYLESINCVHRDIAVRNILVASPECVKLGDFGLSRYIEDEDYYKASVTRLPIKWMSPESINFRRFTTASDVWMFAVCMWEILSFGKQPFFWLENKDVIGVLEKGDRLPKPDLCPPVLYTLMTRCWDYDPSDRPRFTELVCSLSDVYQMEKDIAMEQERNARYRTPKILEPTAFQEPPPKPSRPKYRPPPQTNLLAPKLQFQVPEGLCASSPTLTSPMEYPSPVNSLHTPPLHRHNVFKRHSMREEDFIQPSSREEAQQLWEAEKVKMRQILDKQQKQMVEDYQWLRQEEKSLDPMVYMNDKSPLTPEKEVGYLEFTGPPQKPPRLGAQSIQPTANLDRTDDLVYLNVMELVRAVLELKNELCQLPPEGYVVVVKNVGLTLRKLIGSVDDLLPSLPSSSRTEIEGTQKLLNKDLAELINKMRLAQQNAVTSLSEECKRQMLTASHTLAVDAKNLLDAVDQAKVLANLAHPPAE

Vasopressin V1a receptor = Vasopressin V1a receptor (Homo sapiens, UniProt P37288); assay: Counterscreen for Oxytocin Receptor (OXTR) agonists: Fluorescence-based cell-based high throughput dose response assay to identify agonists of the vasopressin 1 receptor (V1R). [Related pubchem assays: 2435 (Primary screen (OXTR agonists in singlicate)), 434991 (Counterscreen (V1R agonists in triplicate)), 2482 (Summary (OXTR agonists)) …; assay type: functional
Oxytocin receptor = Oxytocin receptor (Homo sapiens, UniProt P30559); assay: Fluorescence-based cell-based high throughput dose response assay for agonists of the Oxytocin Receptor (OXTR). [Related pubchem assays: 2435 (Primary screen (OXTR agonists in singlicate)), 434991 (Counterscreen (V1R agonists in triplicate)), 2482 (Summary (OXTR agonists)), 434963 (Confirmation screen (OXTR agonists in triplicate))]; assay type: functional
[16] = target: Dual specificity protein phosphatase 3 (Homo sapiens, UniProt P51452); assay: inhibition constants for human DUSP3 – biochemical, colorimetric, SAR follow-up (AID 2004)
Chain of Dual specificity protein phosphatase 3 (P51452 whole entry): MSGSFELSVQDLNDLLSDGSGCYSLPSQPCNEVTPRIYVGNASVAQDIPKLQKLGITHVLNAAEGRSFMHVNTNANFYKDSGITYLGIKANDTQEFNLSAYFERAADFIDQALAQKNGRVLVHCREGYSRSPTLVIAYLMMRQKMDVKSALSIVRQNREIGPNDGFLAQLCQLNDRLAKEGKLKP

[17] = target: Induced myeloid leukemia cell differentiation protein Mcl-1 (Homo sapiens, UniProt Q07820); assay type: functional
[18] = CCR5-tropic HIV-1 fusion blockers – cell-based, CCR5-tropic Env, dose response (AID 2279); assay type: functional
Estrogen receptor beta [19] = target: T2, Estrogen receptor beta (Homo sapiens, UniProt Q92731); assay: blockers of SRC-3 recruitment to ERβ – biochemical, ELISA, streptavidin-HRP readout, orthogonal assay, confirmation (AID 1060)
T2 sequence (Q92731 whole entry): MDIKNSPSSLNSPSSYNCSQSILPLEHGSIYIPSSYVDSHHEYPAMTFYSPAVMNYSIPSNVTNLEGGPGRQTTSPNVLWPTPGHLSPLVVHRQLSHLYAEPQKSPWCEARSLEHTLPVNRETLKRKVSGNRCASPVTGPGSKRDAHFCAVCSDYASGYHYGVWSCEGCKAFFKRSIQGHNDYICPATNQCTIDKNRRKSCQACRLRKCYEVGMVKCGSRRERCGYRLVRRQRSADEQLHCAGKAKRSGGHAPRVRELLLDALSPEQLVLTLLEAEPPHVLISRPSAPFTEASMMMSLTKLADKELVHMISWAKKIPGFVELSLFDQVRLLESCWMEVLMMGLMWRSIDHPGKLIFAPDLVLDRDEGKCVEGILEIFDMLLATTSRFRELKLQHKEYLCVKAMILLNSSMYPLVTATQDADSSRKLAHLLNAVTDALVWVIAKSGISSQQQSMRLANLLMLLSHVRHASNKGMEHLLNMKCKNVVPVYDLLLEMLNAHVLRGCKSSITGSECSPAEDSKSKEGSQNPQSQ

Estrogen receptor beta [20] = target: T2, Estrogen receptor beta
Galanin receptor type 2 = Galanin receptor type 2 (Homo sapiens, UniProt O43603); assay: Dose Response cell-based high-throughput screening assay to identify antagonists of galanin receptor 2 (GALR2). [Related pubchem assays: 828, 866 ]; assay type: functional
[21] = Luminescence Cell-Based Dose Confirmation HTS to Identify Activators of 5'UTR Stem-Loop Driven Alpha-Synuclein mRNA Translation in H4 Neuroglioblastoma Cells. [Related pubchem assays: 1829 (Project Summary), 1814 (Primary HTS)]; assay type: functional
[22] = Luminescence-based cell-based high throughput dose response assay to identify activators of the DAF-12 from the parasite S. stercoralis (ssDAF-12).; assay type: functional
[23] = Luminescence Cell-Based Dose Response HTS to Identify Activators of Luciferase Translation or Activity in H4 […] Cells. [Related pubchem assays: 1829 (Project Summary), 1814 (Primary HTS)]; assay type: functional
[24] = target: T3, Alkaline phosphatase, tissue-nonspecific isozyme (Homo sapiens, UniProt P05186)
T3 sequence (P05186 whole entry): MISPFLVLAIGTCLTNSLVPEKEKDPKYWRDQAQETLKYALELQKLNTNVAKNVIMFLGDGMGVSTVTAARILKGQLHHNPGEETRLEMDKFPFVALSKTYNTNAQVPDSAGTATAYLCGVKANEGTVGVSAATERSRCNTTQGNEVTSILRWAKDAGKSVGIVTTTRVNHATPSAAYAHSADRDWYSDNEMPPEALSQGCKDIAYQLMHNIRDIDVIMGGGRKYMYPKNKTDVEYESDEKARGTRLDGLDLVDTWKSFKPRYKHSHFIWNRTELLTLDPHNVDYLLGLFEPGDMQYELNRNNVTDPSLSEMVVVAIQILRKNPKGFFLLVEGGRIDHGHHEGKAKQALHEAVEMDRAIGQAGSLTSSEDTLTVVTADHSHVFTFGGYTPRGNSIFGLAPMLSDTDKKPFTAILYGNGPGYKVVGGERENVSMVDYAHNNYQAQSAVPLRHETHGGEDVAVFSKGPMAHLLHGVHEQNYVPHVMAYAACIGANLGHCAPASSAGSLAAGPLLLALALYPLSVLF

H4 = assay: Luminescence Cell-Based Dose Response HTS to Identify Activators of 5'UTR Stem-Loop Driven Prion Protein mRNA Translation in H4 Neuroglioblastoma Cells. [Related pubchem assays: 1829 (Project Summary), 1814 (Primary HTS)]; assay type: functional; conditions: Homo sapiens
Estrogen receptor = Estrogen receptor (Homo sapiens, UniProt P03372);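 also: potency for inhibiting coactivator peptide recruitment to the receptor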
Chain of Estrogen receptor (P03372 whole entry): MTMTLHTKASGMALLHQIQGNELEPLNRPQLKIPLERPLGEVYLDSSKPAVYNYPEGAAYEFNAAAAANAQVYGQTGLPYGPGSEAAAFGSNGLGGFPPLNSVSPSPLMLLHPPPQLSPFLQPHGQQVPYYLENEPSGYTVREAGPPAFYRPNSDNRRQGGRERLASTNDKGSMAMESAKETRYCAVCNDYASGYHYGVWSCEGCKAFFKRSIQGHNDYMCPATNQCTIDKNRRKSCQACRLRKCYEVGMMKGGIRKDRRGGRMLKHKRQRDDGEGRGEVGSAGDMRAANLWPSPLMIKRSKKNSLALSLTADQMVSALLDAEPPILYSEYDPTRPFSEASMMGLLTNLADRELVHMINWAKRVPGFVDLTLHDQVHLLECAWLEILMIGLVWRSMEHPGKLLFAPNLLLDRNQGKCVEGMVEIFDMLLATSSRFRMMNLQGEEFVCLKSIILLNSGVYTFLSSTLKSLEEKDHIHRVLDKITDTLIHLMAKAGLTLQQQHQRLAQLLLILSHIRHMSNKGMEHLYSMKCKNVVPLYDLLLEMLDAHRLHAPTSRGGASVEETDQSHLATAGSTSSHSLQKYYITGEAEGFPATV

Protein Rev = Protein Rev (Human immunodeficiency virus type 1 group M subtype B (isolate WMJ22)(HIV-1), UniProt P05866); assay: inhibitors of Rev protein–RRE RNA complex – biochemical, protein-RNA interaction, dose response (AID 842); set-up: species or system Human immunodeficiency virus 1
Chain of Protein Rev (P05866 whole entry): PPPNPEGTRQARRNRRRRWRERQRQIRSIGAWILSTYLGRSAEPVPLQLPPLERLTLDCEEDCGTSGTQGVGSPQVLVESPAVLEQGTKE

HEK293 [25] = assay: Fluorescence-based counterscreen for potentiators or agonists of NPY-Y2: cell-based high-throughput dose response assay to identify inhibitors of cyclic nucleotide gated ion channel (CNGC) activity. In this assay, the parental HEK293 cell line transfected with a cyclic-nucleotide gated ion channel (CNGC)-based cAMP sensor is used to measure inhibition of isoproterenol-induced CNGC activity by test compound.; assay type: functional; conditions: Homo sapiens
[26] = target: Neuropeptide Y receptor type 1 (Homo sapiens, UniProt P25929); assay: Fluorescence-based counterscreen for agonists of NPY-Y2: cell-based high-throughput dose response assay for agonists of NPY-Y1.; assay type: functional
[27] = target: Neuropeptide Y receptor type 2 (Homo sapiens, UniProt P49146); assay: Fluorescence-based cell-based high-throughput dose response assay for agonists of NPY-Y2. [Related pubchem assays: 1703 (Screening assay (CNGC inhibitors).), 1359 (Screening assay (NPY-Y2 potentiators or agonists).), 1304 (Screening assay (NPY-Y1 potentiators or agonists).), 1710 (Screening assay (NPY-Y2 agonists).), 1791 (Summary AID.)]; assay type: functional
Tumor necrosis factor = Tumor necrosis factor (Homo sapiens, UniProt P01375); assay: analog potency on TNFa NF-kB signaling – cell-based, revised, SAR follow-up (AID 2337); assay type: functional
[28] = target: Nucleotide-binding oligomerization domain-containing protein 2 (Homo sapiens, UniProt Q9HC29); assay: PubChem AID 2334; assay type: functional
Chain of Nucleotide-binding oligomerization domain-containing protein 2 (Q9HC29 whole entry, the tested form may be a part): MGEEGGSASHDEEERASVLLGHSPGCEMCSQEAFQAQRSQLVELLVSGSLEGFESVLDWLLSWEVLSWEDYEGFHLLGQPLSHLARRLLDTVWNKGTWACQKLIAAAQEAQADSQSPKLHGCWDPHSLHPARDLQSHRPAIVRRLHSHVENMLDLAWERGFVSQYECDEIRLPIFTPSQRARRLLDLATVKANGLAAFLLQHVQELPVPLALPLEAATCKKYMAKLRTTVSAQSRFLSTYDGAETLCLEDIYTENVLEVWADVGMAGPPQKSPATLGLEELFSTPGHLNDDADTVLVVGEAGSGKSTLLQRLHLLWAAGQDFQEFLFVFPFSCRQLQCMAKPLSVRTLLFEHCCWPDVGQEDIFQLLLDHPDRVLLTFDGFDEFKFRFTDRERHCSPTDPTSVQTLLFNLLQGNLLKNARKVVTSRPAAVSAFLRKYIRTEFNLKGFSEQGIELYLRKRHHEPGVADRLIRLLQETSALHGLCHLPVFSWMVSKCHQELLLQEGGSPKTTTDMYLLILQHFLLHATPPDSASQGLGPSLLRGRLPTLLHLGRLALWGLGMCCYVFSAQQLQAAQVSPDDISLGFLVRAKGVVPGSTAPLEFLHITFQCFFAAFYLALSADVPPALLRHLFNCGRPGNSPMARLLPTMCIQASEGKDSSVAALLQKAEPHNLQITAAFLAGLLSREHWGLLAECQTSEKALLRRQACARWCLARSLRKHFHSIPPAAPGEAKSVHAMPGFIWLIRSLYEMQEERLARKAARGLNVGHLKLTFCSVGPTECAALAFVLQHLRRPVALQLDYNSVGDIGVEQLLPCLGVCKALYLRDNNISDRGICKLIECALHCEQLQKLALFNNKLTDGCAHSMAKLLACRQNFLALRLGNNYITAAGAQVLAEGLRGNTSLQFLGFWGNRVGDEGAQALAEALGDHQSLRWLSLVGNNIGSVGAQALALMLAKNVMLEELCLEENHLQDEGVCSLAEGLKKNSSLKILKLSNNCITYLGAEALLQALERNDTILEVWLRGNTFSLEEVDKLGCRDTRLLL

HEK293 [29] = assay: cells; conditions: Homo sapiens
[30] = target: Nucleotide-binding oligomerization domain-containing protein 1 (Homo sapiens, UniProt Q9Y239); assay: blockers of NOD1 pathway activity – revised, SAR follow-up (AID 2333); assay type: functional
Chain of Nucleotide-binding oligomerization domain-containing protein 1 (Q9Y239 whole entry, the tested form may be a part): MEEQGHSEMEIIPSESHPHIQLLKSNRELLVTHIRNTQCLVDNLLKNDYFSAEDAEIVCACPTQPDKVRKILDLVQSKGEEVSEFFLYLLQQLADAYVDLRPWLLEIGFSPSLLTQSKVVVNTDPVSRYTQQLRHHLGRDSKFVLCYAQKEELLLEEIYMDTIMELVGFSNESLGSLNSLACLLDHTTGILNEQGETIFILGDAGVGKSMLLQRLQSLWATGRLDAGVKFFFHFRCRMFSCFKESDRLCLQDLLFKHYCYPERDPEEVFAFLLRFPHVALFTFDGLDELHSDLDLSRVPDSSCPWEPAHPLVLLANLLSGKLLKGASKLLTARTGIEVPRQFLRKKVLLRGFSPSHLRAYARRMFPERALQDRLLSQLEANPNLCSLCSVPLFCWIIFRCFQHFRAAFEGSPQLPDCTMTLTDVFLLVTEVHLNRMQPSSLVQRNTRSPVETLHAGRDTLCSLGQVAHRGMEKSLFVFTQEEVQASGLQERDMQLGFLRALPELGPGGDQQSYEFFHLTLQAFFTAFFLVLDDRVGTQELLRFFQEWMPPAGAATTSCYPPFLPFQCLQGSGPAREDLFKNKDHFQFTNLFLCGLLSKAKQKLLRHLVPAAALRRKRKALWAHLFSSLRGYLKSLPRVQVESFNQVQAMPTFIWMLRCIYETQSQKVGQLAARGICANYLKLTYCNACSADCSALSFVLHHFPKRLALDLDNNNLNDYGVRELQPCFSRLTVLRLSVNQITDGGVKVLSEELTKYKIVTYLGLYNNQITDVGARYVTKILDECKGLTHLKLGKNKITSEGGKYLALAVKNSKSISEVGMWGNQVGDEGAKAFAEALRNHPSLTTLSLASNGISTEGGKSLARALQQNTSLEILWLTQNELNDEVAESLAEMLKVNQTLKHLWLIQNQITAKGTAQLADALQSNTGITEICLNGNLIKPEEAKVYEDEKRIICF

CC1CCCN(C(C(=O)Nc2ccc3c(c2)OCO3)c2ccccc2)C1 (centres undefined)
IC50 (Staphylococcus aureus): 0.162 µM (active)

CCOc1cccc(/C=N/NC(=O)c2ccc3c(c2)OCCO3)c1O
CC50 [1]: 3.18 µM (active) | AC50 (INS1): 3.01 µM (active) | IC50 (cells [2]): > 50 µM (active) | IC50 [3]: 12.5 µM (not active) | CC50 [4]: 4.3 µM (active) | CC50 [5]: 6.58 µM (active) | EC50 (Streptokinase A): 1.11 µM (active) | EC50 (cells [6]): > 350 µM (not active) | EC50 (Streptococcus): 2.77 µM (active) | EC50 (cells [7]): 50.3 µM (active) | EC50 [8]: 1.49 µM (active)

CC(=O)OCC1OC(c2ccc3c(c2)OCO3)C=CC1OC(C)=O (centres undefined)
AC50 (Cytochrome P450 2C9): 5.01 µM (inconclusive) | AC50 (Cytochrome P450 2D6): 7.94 µM (inconclusive)

COc1ccc2nc3oc(C(=O)N4CCN(c5cccc(Cl)c5)CC4)cc3cc2c1
IC50 [9]: 2.14 µM (active)

Cc1occc1C(=O)N/N=C/c1ccc(N(C)C)cc1
AC50 [10]: 26.4 µM (active) | AC50 [11]: 19.5 µM (active)

CCOC(=O)N1CCN(S(=O)(=O)c2ccc(C(=O)N(CCCN(C)C)c3nc4ccc(CC)cc4s3)cc2)CC1
IC50 [12]: 18.3 µM (not active) | IC50 [13]: 14.2 µM (not active)

O=C(Nc1ccccc1)Nc1nc(-c2ccccc2)cs1
IC50 (NADPH oxidase 1): > 17 µM (not active)

Nc1nc(CSc2nnnn2-c2ccccc2)nc(Nc2ccccc2)n1
EC50 [14]: 15.5 µM (active)

COc1ccc([N+](=O)[O-])cc1COc1cc(C)cc2oc(=O)cc(-c3ccccc3)c12
IC50 [15]: > 69.5 µM (not active)

Oc1ccc(Cl)cc1CNCc1ccc(F)cc1
EC50 (Vasopressin V1a receptor): 11 µM (not active) | EC50 (Oxytocin receptor): 15.5 µM (not active)

COc1cccc2c1NC(c1cccc3ccccc13)C1CC=CC21 (centres undefined)
Ki [16]: 141 µM (inactive)

COc1cc(/C=C2\SC(=O)N(Cc3ccc(F)cc3)C2=O)cc([N+](=O)[O-])c1O
IC50 [17]: 7.65 µM (active) | IC50 [18]: 45.6 µM (active)

Cc1ccccc1-n1c(SC/C(O)=C(\C#N)c2nc3ccccc3[nH]2)nnc1-c1ccncc1
IC50 (Estrogen receptor beta [19]): 0.371 µM (not active) | IC50 (Estrogen receptor beta [20]): > 50 µM (not active)

CCOC(=O)COc1ccc(S(=O)(=O)NCc2ccncc2)cc1
IC50 (Galanin receptor type 2): > 42 µM (not active)

Cc1cc(C)c(C#N)c(SCc2nc3ccccc3[nH]2)n1
EC50 [21]: 0.262 µM (active) | IC50 [22]: > 67.5 µM (inactive) | EC50 [23]: 14.9 µM (active) | EC50 [24]: > 100 µM (not active) | EC50 (H4): 44.6 µM (active)

CCCCOC(=O)c1cc(-c2ccc(/C=N/n3cnnc3)o2)ccc1Cl
IC50 (Estrogen receptor): > 50 µM (not active)

CC(NCc1ccc(N(C)C)cc1)C1CC2CCC1C2 (centres undefined)
IC50 (Protein Rev): > 79.4 µM (not active)

c1ccc(CSc2nc3c[nH]cnc-3n2)cc1
EC50 (HEK293 [25]): > 35.4 µM (not active) | EC50 [26]: > 35.4 µM (not active) | EC50 [27]: > 35.4 µM (not active)

O=C(Nc1sc2c(c1C(=O)O)CCCC2)c1cccs1
IC50 (Tumor necrosis factor): > 20 µM (inactive) | IC50 [28]: > 20 µM (inactive) | IC50 (HEK293 [29]): > 20 µM (inactive) | IC50 [30]: > 20 µM (inactive)

Source: ChEMBL document CHEMBL1201862, “PubChem BioAssay data set” (2004)
